Test results from PubChem BioAssay AID256 (DTP/NCI, 2004).
Where “and” joins values, the source holds several entries; their conditions need not be identical. Equal entries are not always repeated. Inconclusive results and toxic doses are left out. The calls were made as follows: active = survival T/C of 150% or more; inactive = T/C below 125% in these data.

Tested on: CD2F1 mice, L1210 leukemia ip, survival T/C
Assay: NCI In Vivo Anticancer Drug Screen. Data for tumor model L1210 Leukemia (intraperitoneal) in CD2F1 (CDF1) mice
Conditions: higher = longer survival
Summary of the method: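 Antitumor effect is scored in animals hosting a serially transplanted tumor. Values compare compound-dosed animals against vehicle-only controls as a simple quotient.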

[1] = endpoint: mean survival time, dose: 100.0 mg/kg/injection, schedule: Q01DX009 (ip), vehicle: saline with Tween-80
[2] = endpoint: mean survival time, dose: 200.0 mg/kg/injection, schedule: Q01DX009 (ip), vehicle: saline with Tween-80
[3] = endpoint: mean survival time, dose: 400.0 mg/kg/injection, schedule: Q01DX009 (ip), vehicle: saline with Tween-80
[4] = endpoint: mean survival time, dose: 100.0 mg/kg/injection, schedule: Q04DX002 (ip), vehicle: saline with Tween-80
[5] = endpoint: mean survival time, dose: 200.0 mg/kg/injection, schedule: Q04DX002 (ip), vehicle: saline with Tween-80
[6] = endpoint: mean survival time, dose: 100.0 mg/kg/injection, schedule: Q04DX003 (ip), vehicle: saline with Tween-80
[7] = endpoint: mean survival time, dose: 200.0 mg/kg/injection, schedule: Q04DX003 (ip), vehicle: saline with Tween-80
[8] = endpoint: mean survival time, dose: 400.0 mg/kg/injection, schedule: Q04DX003 (ip), vehicle: saline with Tween-80

Measured: T/C

CCCc1cc(=O)n(CCCc2ccccc2)c(=O)n1CCCc1ccccc1
inactive: endpoint: mean survival time, dose: 100.0 mg/kg/injection, schedule: Q01DX001 (ip), vehicle: Klucel (hydroxypropylcellulose) (HPC) 103 % of control | endpoint: mean survival time, dose: 200.0 mg/kg/injection, schedule: Q01DX001 (ip), vehicle: Klucel (hydroxypropylcellulose) (HPC) 97 % of control | endpoint: mean survival time, dose: 400.0 mg/kg/injection, schedule: Q01DX001 (ip), vehicle: Klucel (hydroxypropylcellulose) (HPC) 90 % of control

Cc1cn(C2CC(O)C(CO)O2)c(=O)[n]([Hg][c]2ccccc2)c1=O (configuration not stated)
inactive: endpoint: median survival time, dose: 0.79 mg/kg/injection, schedule: Q01DX005 (ip), vehicle: saline 110 % of control | endpoint: median survival time, dose: 1.56 mg/kg/injection, schedule: Q01DX005 (ip), vehicle: saline 103 % of control | endpoint: median survival time, dose: 3.12 mg/kg/injection, schedule: Q01DX005 (ip), vehicle: saline 112 % of control | endpoint: median survival time, dose: 6.25 mg/kg/injection, schedule: Q01DX005 (ip), vehicle: saline 103 % of control | endpoint: median survival time, dose: 12.5 mg/kg/injection, schedule: Q01DX005 (ip), vehicle: saline 103 % of control

C=CCN(CC=C)C(=O)OCC
inactive: [1] 97 % of control | endpoint: mean survival time, dose: 100.0 mg/kg/injection, schedule: Q04DX003 (ip), vehicle: saline 97 % of control | [2] 96 % of control | endpoint: mean survival time, dose: 200.0 mg/kg/injection, schedule: Q04DX003 (ip), vehicle: saline 95 % of control | endpoint: mean survival time, dose: 400.0 mg/kg/injection, schedule: Q04DX003 (ip), vehicle: saline 101 % of control

CCOC(=O)Nc1cc2c(c(N)n1)N=C(CN(C)c1ccccc1)CN2
inactive: endpoint: mean survival time, dose: 6.25 mg/kg/injection, schedule: Q01DX009 (ip), vehicle: Klucel (hydroxypropylcellulose) (HPC) 110 % of control | endpoint: mean survival time, dose: 12.5 mg/kg/injection, schedule: Q01DX009 (ip), vehicle: Klucel (hydroxypropylcellulose) (HPC) 87 % of control

OCC1OC(n2ncc3c2ncn2ncnc32)C(O)C1O (configuration not stated)
inactive: endpoint: mean survival time, dose: 12.5 mg/kg/injection, schedule: Q01DX005 (ip), vehicle: water 90 % of control | endpoint: mean survival time, dose: 25.0 mg/kg/injection, schedule: Q01DX005 (ip), vehicle: water 94 % of control | endpoint: mean survival time, dose: 50.0 mg/kg/injection, schedule: Q01DX005 (ip), vehicle: water 101 % of control | endpoint: mean survival time, dose: 100.0 mg/kg/injection, schedule: Q01DX005 (ip), vehicle: water 100 % of control | endpoint: mean survival time, dose: 200.0 mg/kg/injection, schedule: Q01DX005 (ip), vehicle: water 113 % of control

CC(=O)OC(OC(C)=O)c1cccc([N+](=O)[O-])c1
inactive: [1] 102 % of control | [2] 93 % of control | [3] 96 % of control

S=C=Nc1ccccn1
inactive: [4] 86 % of control | [5] 101 % of control

CNC(C)C(O)c1ccc(O)cc1 (configuration not stated)
inactive: endpoint: mean survival time, dose: 50.0 mg/kg/injection, schedule: Q01DX001 (ip), vehicle: carboxymethylcellulose (CMC) 112 % of control | endpoint: mean survival time, dose: 100.0 mg/kg/injection, schedule: Q01DX001 (ip), vehicle: carboxymethylcellulose (CMC) 108 % of control | endpoint: mean survival time, dose: 200.0 mg/kg/injection, schedule: Q01DX001 (ip), vehicle: carboxymethylcellulose (CMC) 108 % of control | endpoint: mean survival time, dose: 400.0 mg/kg/injection, schedule: Q01DX001 (ip), vehicle: carboxymethylcellulose (CMC) 104 % of control

COC1=C2C[C@@H](C)C[C@@H](OC)[C@@H](O)[C@H](C)/C=C(\C)[C@@H](OC(N)=O)[C@H](OC)/C=C\C=C(/C)C(=O)NC(=CC1=O)C2=O
inactive: endpoint: mean survival time, dose: 0.12 mg/kg/injection, schedule: Q01DX009 (ip), vehicle: saline with Tween-80 102 % of control | endpoint: mean survival time, dose: 0.25 mg/kg/injection, schedule: Q01DX009 (ip), vehicle: saline with Tween-80 102 % of control | endpoint: mean survival time, dose: 0.5 mg/kg/injection, schedule: Q01DX009 (ip), vehicle: saline with Tween-80 98 % of control | endpoint: mean survival time, dose: 1.0 mg/kg/injection, schedule: Q01DX009 (ip), vehicle: saline with Tween-80 101 % of control | endpoint: mean survival time, dose: 2.0 mg/kg/injection, schedule: Q01DX009 (ip), vehicle: saline with Tween-80 112 % of control | endpoint: mean survival time, dose: 4.0 mg/kg/injection, schedule: Q01DX009 (ip), vehicle: saline with Tween-80 111 % of control | endpoint: mean survival time, dose: 5.0 mg/kg/injection, schedule: Q01DX001 (ip), vehicle: saline 104 % of control | endpoint: mean survival time, dose: 10.0 mg/kg/injection, schedule: Q01DX001 (ip), vehicle: saline 107 % of control

CC12CCC3C(CCC4CCCCC43C)C1CC/C2=N\O (configuration not stated)
inactive: endpoint: mean survival time, dose: 100.0 mg/kg/injection, schedule: Q04DX003 (sc), vehicle: steriod suspending solution 96 % of control | endpoint: mean survival time, dose: 200.0 mg/kg/injection, schedule: Q04DX003 (sc), vehicle: steriod suspending solution 104 % of control | endpoint: mean survival time, dose: 400.0 mg/kg/injection, schedule: Q04DX003 (sc), vehicle: steriod suspending solution 89 % of control

ICC1COC(CI)CO1 (configuration not stated)
inactive: [1] 102 % of control | [6] 105 % of control | [2] 96 % of control | [7] 110 % of control | [3] 100 % of control | [8] 100 % of control

[Cl][Pt+2][Cl].[NH-]c1cccc(F)c1.[NH-]c1cccc(F)c1
inactive: endpoint: mean survival time, dose: 12.5 mg/kg/injection, schedule: Q04DX003 (ip), vehicle: saline with Tween-80 97 % of control | endpoint: mean survival time, dose: 25.0 mg/kg/injection, schedule: Q04DX003 (ip), vehicle: saline with Tween-80 114 % of control | endpoint: mean survival time, dose: 50.0 mg/kg/injection, schedule: Q04DX003 (ip), vehicle: saline with Tween-80 102 % of control

O=C(O)c1c(F)cccc1F
inactive: endpoint: mean survival time, dose: 75.0 mg/kg/injection, schedule: Q01DX001 (ip), vehicle: other 103 % of control | endpoint: mean survival time, dose: 150.0 mg/kg/injection, schedule: Q01DX001 (ip), vehicle: other 100 % of control | endpoint: mean survival time, dose: 300.0 mg/kg/injection, schedule: Q01DX001 (ip), vehicle: other 100 % of control

COC12[C@@H]3N[C@@H]3CN1C1=C(C(=O)C(N3CCCC(O)C3)=C(C)C1=O)[C@@H]2COC(N)=O (some centres not stated)
inactive: endpoint: median survival time, dose: 3.0 mg/kg/injection, schedule: Q01DX001 (ip), vehicle: saline 106 % of control | endpoint: median survival time, dose: 6.0 mg/kg/injection, schedule: Q01DX001 (ip), vehicle: saline 111 % of control | endpoint: median survival time, dose: 12.0 mg/kg/injection, schedule: Q01DX001 (ip), vehicle: saline 118 % of control and 98 % of control | endpoint: median survival time, dose: 24.0 mg/kg/injection, schedule: Q01DX001 (ip), vehicle: saline 108 % of control | endpoint: median survival time, dose: 48.0 mg/kg/injection, schedule: Q01DX001 (ip), vehicle: saline 112 % of control

COC1CCC([NH-])(C[NH-])C(c2ccc3c(c2)OCO3)O1.[Cl][Pt+2][Cl] (configuration not stated)
inactive: endpoint: median survival time, dose: 8.25 mg/kg/injection, schedule: Q04DX003 (ip), vehicle: saline 103 % of control | endpoint: median survival time, dose: 17.5 mg/kg/injection, schedule: Q04DX003 (ip), vehicle: saline 105 % of control | endpoint: median survival time, dose: 35.0 mg/kg/injection, schedule: Q04DX003 (ip), vehicle: saline 110 % of control | endpoint: median survival time, dose: 70.0 mg/kg/injection, schedule: Q04DX003 (ip), vehicle: saline with Tween-80 108 % of control | endpoint: median survival time, dose: 70.0 mg/kg/injection, schedule: Q04DX003 (ip), vehicle: saline 106 % of control | endpoint: median survival time, dose: 140.0 mg/kg/injection, schedule: Q04DX003 (ip), vehicle: saline with Tween-80 113 % of control

CCOc1cc2c(cc1C(C)c1ccc(OC)cc1)OCO2 (configuration not stated)
inactive: endpoint: median survival time, dose: 12.5 mg/kg/injection, schedule: Q01DX009 (ip), vehicle: distilled water + alcohol 103 % of control | endpoint: median survival time, dose: 25.0 mg/kg/injection, schedule: Q01DX009 (ip), vehicle: distilled water + alcohol 93 % of control and 104 % of control | endpoint: median survival time, dose: 50.0 mg/kg/injection, schedule: Q01DX009 (ip), vehicle: distilled water + alcohol 115 % of control and 98 % of control | endpoint: median survival time, dose: 100.0 mg/kg/injection, schedule: Q01DX009 (ip), vehicle: distilled water + alcohol 98 % of control and 108 % of control | endpoint: median survival time, dose: 200.0 mg/kg/injection, schedule: Q01DX009 (ip), vehicle: distilled water + alcohol 111 % of control

O=C1CCc2ccccc21 (tested in a mixture with another compound)
inactive: endpoint: mean survival time, dose: 50.0 mg/kg/injection, schedule: Q04DX002 (ip), vehicle: saline with Tween-80 96 % of control | [4] 101 % of control | [5] 96 % of control

Cc1c(Cl)cccc1NC(=O)Nc1ccc(F)c([N+](=O)[O-])c1
inactive: endpoint: mean survival time, dose: 50.0 mg/kg/injection, schedule: Q01DX009 (ip), vehicle: Klucel (hydroxypropylcellulose) (HPC) 91 % of control | endpoint: mean survival time, dose: 100.0 mg/kg/injection, schedule: Q01DX009 (ip), vehicle: Klucel (hydroxypropylcellulose) (HPC) 102 % of control | endpoint: mean survival time, dose: 200.0 mg/kg/injection, schedule: Q01DX009 (ip), vehicle: Klucel (hydroxypropylcellulose) (HPC) 98 % of control

CCCCCC(CN(C)C)C(/C=C/c1ccccc1)OC(=O)c1ccc([N+](=O)[O-])cc1 (configuration not stated)
inactive: [1] 97 % of control | [6] 90 % of control | [2] 100 % of control | [7] 105 % of control | [8] 106 % of control

CCCCCC(O)C(C)C(C)C (configuration not stated)
inactive: endpoint: mean survival time, dose: 50.0 mg/kg/injection, schedule: Q01DX009 (ip), vehicle: saline with Tween-80 100 % of control | [1] 95 % of control | [2] 103 % of control
